In PMC5584945, “Evaluation of robenidine analog NCL195 as a novel broad-spectrum antibacterial agent” (PLoS ONE, 2017):
Where two headings read alike, the source gives them in different places.

How the values were obtained:
Assay in all cases: MIC alone and checkerboard with EDTA or polymyxin B
Format in all cases: cell-based
[1] = system: K. pneumoniae; conditions: for MIC of EDTA in combination with NCL195: with NCL195 4 μg/ml; for MIC: Klebsiella pneumoniae, read-out: MIC, agent alone
Protocol: (§1) MICs for NCL812 and its analogs (serial two-fold dilutions commencing at 128 μg/ml) were determined (in duplicate) in round bottom 96-well microtitre trays (Sarstedt 82.1582.001), using the broth micro-dilution method recommended by the Clinical and Laboratory Standards Institute (CLSI). […] MIC50, MIC90 and MIC range for NCL812, NCL195 and NCL219 were calculated against each S. pneumoniae, S. aureus or VRE isolate. To assess the potential activity of NCL195 against Gram-negative bacteria, MICs against Acinetobacter spp, E. coli, K. pneumoniae, P. aeruginosa, Proteus spp and Neisseria meningitidis were performed in the presence or absence of 0.08 mM-20 mM EDTA in a standard checkerboard assay.

[2] = system: A. baumannii; conditions: for MIC: Acinetobacter baumannii, read-out: MIC, agent alone; for MIC of polymyxin B in combination with NCL195: with NCL195 0.5 μg/ml
Protocol: as §1

[3] = system: E. coli; conditions: for MIC: Escherichia coli, read-out: MIC, agent alone; for MIC of polymyxin B in combination with NCL195: with NCL195 0.25 μg/ml
Protocol: as §1

[4] = system: P. aeruginosa; conditions: for MIC: Pseudomonas aeruginosa, read-out: MIC, agent alone; for MIC of polymyxin B in combination with NCL195: with NCL195 1 μg/ml
Protocol: as §1

## O=C(O)CN(CCN(CC(=O)O)CC(=O)O)CC(=O)O [EDTA, Ethylenediaminetetraacetic acid]
[1]; K. pneumoniae ATCC 4352
  MIC of EDTA in combination with NCL195: 10000 µM
[1]; K. pneumoniae ATCC 33495
  MIC of EDTA in combination with NCL195: 10000 µM
[1]; ATCC4352, K. pneumoniae ATCC 4352
  MIC: > 30000 µM
[1]; ATCC33495, K. pneumoniae ATCC 33495
  MIC: > 30000 µM
[2]; A. baumannii ATCC 12457, with NCL195 4 μg/ml
  MIC of EDTA in combination with NCL195: 250 µM
[2]; A. baumannii ATCC 19606, with NCL195 2 μg/ml
  MIC of EDTA in combination with NCL195: 500 µM
[2]; ATCC12457, A. baumannii ATCC 12457
  MIC: 500 µM
[2]; ATCC19606, A. baumannii ATCC 19606
  MIC: 1000 µM
[3]; E. coli ATCC 11229, with NCL195 8 μg/ml
  MIC of EDTA in combination with NCL195: 625 µM
[3]; E. coli ATCC 25922, with NCL195 4 μg/ml
  MIC of EDTA in combination with NCL195: 2500 µM
[3]; ATCC11229, E. coli ATCC 11229
  MIC: 2500 µM
[3]; ATCC25922, E. coli ATCC 25922
  MIC: 10000 µM
[4]; P. aeruginosa ATCC 27853, with NCL195 2 μg/ml
  MIC of EDTA in combination with NCL195: 5000 µM
[4]; P. aeruginosa PA01, with NCL195 0.25 μg/ml
  MIC of EDTA in combination with NCL195: 1250 µM
[4]; ATCC27853, P. aeruginosa ATCC 27853
  MIC: 10000 µM
[4]; P. aeruginosa PA01
  MIC: 2500 µM

## Polymyxin B sulfate
[1]; K. pneumoniae ATCC 4352
  MIC, agent alone: 0.25 µg/mL
[1]; K. pneumoniae ATCC 4352, with NCL195 0.5 μg/ml
  MIC of polymyxin B in combination with NCL195: 0.125 µg/mL
[1]; K. pneumoniae ATCC 33495
  MIC, agent alone: 0.25 µg/mL
[1]; K. pneumoniae ATCC 33495, with NCL195 0.25 μg/ml
  MIC of polymyxin B in combination with NCL195: 0.125 µg/mL
[2]; A. baumannii ATCC 12457
  MIC, agent alone: 0.5 µg/mL
  MIC of polymyxin B in combination with NCL195: 0.125 µg/mL
[2]; A. baumannii ATCC 19606
  MIC, agent alone: 0.5 µg/mL
  MIC of polymyxin B in combination with NCL195: 0.125 µg/mL
[3]; E. coli ATCC 11229
  MIC, agent alone: 0.25 µg/mL
  MIC of polymyxin B in combination with NCL195: 0.125 µg/mL
[3]; E. coli ATCC 25922
  MIC, agent alone: 0.25 µg/mL
  MIC of polymyxin B in combination with NCL195: 0.125 µg/mL
[4]; P. aeruginosa ATCC 27853
  MIC, agent alone: 0.5 µg/mL
  MIC of polymyxin B in combination with NCL195: 0.125 µg/mL
[4]; P. aeruginosa PA01
  MIC, agent alone: 0.5 µg/mL
  MIC of polymyxin B in combination with NCL195: 0.125 µg/mL
